# Experiment: Effective concentration of compound in producing vasoconstrictions was determined
# Format: functional
row,Structure (SMILES),pD2
1,CC(C)[C@H](NC(=O)[C@@H]1NC(=O)[C@H](Cc2ccc(O)cc2)NC(=O)[C@H](CCCCN)NC(=O)[C@H](Cc2c[nH]c3ccccc23)NC(=O)[C@H](Cc2ccccc2)NC(=O)[C@@H](NC(=O)[C@@H](N)CC(=O)O)CSSC1(C)C)C(=O)O,6.7
2,CC(C)[C@H](NC(=O)[C@@H]1CCSSC[C@H](NC(=O)[C@@H](N)CC(=O)O)C(=O)N[C@@H](Cc2ccccc2)C(=O)N[C@@H](Cc2c[nH]c3ccccc23)C(=O)N[C@@H](CCCCN)C(=O)N[C@@H](Cc2ccc(O)cc2)C(=O)N1)C(=O)O,< 6.5
3,CC(C)[C@H](NC(=O)[C@@H]1CSSC[C@@H](NC(=O)[C@@H](N)CC(=O)O)C(=O)N[C@@H](Cc2ccccc2)C(=O)N[C@@H](Cc2c[nH]c3ccccc23)C(=O)N[C@@H](CCCCN)C(=O)N[C@@H](Cc2ccc(O)cc2)C(=O)N1)C(=O)O,8.6
4,CC(C)[C@H](NC(=O)[C@@H]1NC(=O)[C@H](Cc2ccc(O)cc2)NC(=O)[C@H](CCCCN)NC(=O)[C@H](Cc2c[nH]c3ccccc23)NC(=O)[C@H](Cc2ccccc2)NC(=O)[C@H](NC(=O)[C@@H](N)CC(=O)O)C(C)(C)SSC1(C)C)C(=O)O,8.2
5,CC(C)[C@H](NC(=O)[C@@H]1CSSC[C@@H](NC(=O)[C@H](CC(=O)O)NC(=O)[C@H]2CCCN2C(=O)[C@@H](NC(=O)[C@@H](N)CCC(=O)O)[C@@H](C)O)C(=O)N[C@H](Cc2ccccc2)C(=O)N[C@@H](Cc2c[nH]c3ccccc23)C(=O)N[C@H](CCCCN)C(=O)N[C@@H](Cc2ccc(O)cc2)C(=O)N1)C(=O)O,8.3
6,CC(C)[C@H](NC(=O)[C@@H]1CSSC(C)(C)[C@@H](NC(=O)[C@@H](N)CC(=O)O)C(=O)N[C@@H](Cc2ccccc2)C(=O)N[C@@H](Cc2c[nH]c3ccccc23)C(=O)N[C@@H](CCCCN)C(=O)N[C@@H](Cc2ccc(O)cc2)C(=O)N1)C(=O)O,9.6

# From ChEMBL document CHEMBL1149115, “Unraveling the active conformation of urotensin II” (J Med Chem, 2004)
